14 molecules from patent US8846704B2, “Thiopyrimidine-based compounds and uses thereof” (YM Biosciences Austraila Pty Ltd, priority 2007, dated 2014) can be followed below.

One experiment has as its target T1, human JAK1 (Homo sapiens, UniProt P23458).
T1 construct: The kinase domain of human JAK1 was amplified; GST (N); made in house; host or cells: Sf9 insect cells (baculovirus)
The experiment is described as follows: Alphascreen tyrosine kinase enzyme assay, JAK1 kinase domain. The experiment is classed as biochemical. As to conditions: read-out: JAK1 IC50_nM.

Another experiment has as its target T2, human JAK3 (Homo sapiens, UniProt P52333).
T2 construct: The kinase domain of human JAK3 was amplified; GST (N); made in house; host or cells: Sf9 insect cells (baculovirus)
The experiment is described as follows: Alphascreen tyrosine kinase enzyme assay, JAK3 kinase domain. The experiment is classed as biochemical. The settings on record: read-out: JAK3 IC50_nM. The method in brief: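 GST-affinity-purified human JAK3 kinase domain (baculovirus/Sf9) was pre-incubated 20 min with compound ([…]) in HEPES pH 7.5 buffer with MgCl2, vanadate and Tween 20. Biotinylated peptide substrate ([…]) and ATP were then added; phosphotyrosine was detected by AlphaScreen PY100 acceptor and streptavidin donor beads after 2–3 h.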
(In general: Bead proximity is the source of the signal in Alpha formats.)

The subject of a further experiment is BaF3 wild-type cells. Description: Cellular screening, BaF3 wild-type cells, Alamar Blue. The experiment is classed as cell-based. As to conditions: Mus musculus, 40 hr, read-out: BAF3wt IC50_nM. The method in brief:
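Compounds, screened from dilution plates at 20 μM, were added as 10× final stocks to cells grown in DMEM/10% FCS/10% WEHI 3B conditioned medium. Cells were seeded at 1.1× final (50,000–200,000 cells/mL) and incubated 40 hr at 37° C, 5% CO2. Viability was read at 544 nm after a further 4–6 hours with Alamar Blue.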
Background: The colour change of resazurin is a common sign of viable cells or microbes.

Another experiment addresses T3, BTK(h) (Homo sapiens, UniProt Q06187).
T3 construct: purchased Upstate Biotechnology (Dundee, UK), KinaseProfiler service
Description: Upstate KinaseProfiler enzyme assay, BTK. Type of experiment: biochemical. The settings on record: 500 nM compound; read-out: Percent inhibition at 500 nM BTK(h). As to the method:
(§1) Further enzyme assays were conducted at Upstate Biotechnology (Dundee, UK) in the KinaseProfiler™ Assay system.
(§2) The general protocol is as follows. All kinases are pre-diluted to a 10× working concentration prior to addition into the assay. The composition of the dilution buffer for the kinases is 20 mM MOPS pH 7.0, 1 mM EDTA, 0.1% β-mercaptoethanol, 0.01% Brij-35, 5% glycerol, 1 mg/ml BSA. All substrates are dissolved and diluted to working stocks in de-ionised water.

Another experiment concerns the target T4, Flt 1(h) (Homo sapiens, UniProt P17948).
T4 construct: purchased Upstate Biotechnology (Dundee, UK), KinaseProfiler service
The experiment is described as follows: Upstate KinaseProfiler enzyme assay, Flt 1. Type of experiment: biochemical. The settings on record: 500 nM compound; read-out: Percent inhibition at 500 nM Flt 1(h). The method, then:
as §1, §2

Another experiment addresses T5, Flt 4(h) (Homo sapiens, UniProt P35916).
T5 construct: purchased Upstate Biotechnology (Dundee, UK), KinaseProfiler service
The experiment is described as follows: Upstate KinaseProfiler enzyme assay, Flt 4. The experiment is classed as biochemical. The settings on record: 500 nM compound; read-out: Percent inhibition at 500 nM Flt 4(h). The method, then: as §1, §2

In another experiment the target is T6, KDR(h) (Homo sapiens, UniProt P35968).
T6 construct: purchased Upstate Biotechnology (Dundee, UK), KinaseProfiler service
T6 sequence (P35968 20-1356): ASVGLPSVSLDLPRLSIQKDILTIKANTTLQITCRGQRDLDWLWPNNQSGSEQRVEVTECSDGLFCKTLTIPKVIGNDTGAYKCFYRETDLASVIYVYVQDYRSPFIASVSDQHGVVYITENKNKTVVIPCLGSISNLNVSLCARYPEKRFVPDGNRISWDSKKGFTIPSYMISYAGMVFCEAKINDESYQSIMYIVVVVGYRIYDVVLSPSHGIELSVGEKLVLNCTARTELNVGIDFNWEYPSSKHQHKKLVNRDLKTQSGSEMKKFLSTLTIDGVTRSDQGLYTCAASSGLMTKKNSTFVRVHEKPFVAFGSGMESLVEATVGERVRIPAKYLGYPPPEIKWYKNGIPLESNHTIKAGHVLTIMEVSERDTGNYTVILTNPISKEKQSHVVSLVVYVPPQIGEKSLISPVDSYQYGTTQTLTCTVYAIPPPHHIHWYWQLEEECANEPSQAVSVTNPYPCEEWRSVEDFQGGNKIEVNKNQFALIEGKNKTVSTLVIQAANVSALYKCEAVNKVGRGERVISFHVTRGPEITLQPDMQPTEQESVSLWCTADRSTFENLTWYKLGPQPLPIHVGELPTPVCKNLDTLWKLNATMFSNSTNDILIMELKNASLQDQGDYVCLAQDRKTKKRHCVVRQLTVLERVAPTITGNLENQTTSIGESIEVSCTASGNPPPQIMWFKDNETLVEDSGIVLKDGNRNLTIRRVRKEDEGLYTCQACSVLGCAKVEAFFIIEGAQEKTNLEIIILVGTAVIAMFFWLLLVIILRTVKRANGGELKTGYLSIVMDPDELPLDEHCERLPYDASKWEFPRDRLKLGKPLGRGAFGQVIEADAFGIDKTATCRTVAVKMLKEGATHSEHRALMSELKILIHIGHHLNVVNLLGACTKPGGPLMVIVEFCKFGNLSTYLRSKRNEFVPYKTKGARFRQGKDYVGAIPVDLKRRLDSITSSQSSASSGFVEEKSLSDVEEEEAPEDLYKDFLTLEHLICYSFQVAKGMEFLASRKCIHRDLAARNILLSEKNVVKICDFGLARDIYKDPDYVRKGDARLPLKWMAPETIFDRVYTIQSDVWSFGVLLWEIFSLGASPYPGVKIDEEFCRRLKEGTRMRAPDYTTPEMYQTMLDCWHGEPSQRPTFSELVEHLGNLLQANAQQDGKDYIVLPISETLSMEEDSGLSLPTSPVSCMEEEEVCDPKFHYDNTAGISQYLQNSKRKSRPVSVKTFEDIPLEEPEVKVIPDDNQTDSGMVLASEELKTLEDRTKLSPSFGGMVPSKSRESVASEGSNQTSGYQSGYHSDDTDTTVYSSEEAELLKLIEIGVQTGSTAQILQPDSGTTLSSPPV
Description: Upstate KinaseProfiler enzyme assay, KDR. Type of experiment: biochemical. As to conditions: 500 nM compound; read-out: Percent inhibition at 500 nM KDR(h). The method, then: as §1, §2

A further experiment concerns CTLL2. Description: Cellular screening, CTLL2 cells, Alamar Blue. The experiment is classed as cell-based. The settings on record: Mus musculus, CTLL-2, read-out: CTLL2 IC50_nM. The procedure, abridged: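 Viability is read with Alamar Blue at 544 nm, the dye added for the final 4-6 hours. Compounds were incubated for 40 hr with CTLL2 cells taken from late-log-phase culture, at 37° C in 5% CO2.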

T3 sequence (Q06187 whole entry): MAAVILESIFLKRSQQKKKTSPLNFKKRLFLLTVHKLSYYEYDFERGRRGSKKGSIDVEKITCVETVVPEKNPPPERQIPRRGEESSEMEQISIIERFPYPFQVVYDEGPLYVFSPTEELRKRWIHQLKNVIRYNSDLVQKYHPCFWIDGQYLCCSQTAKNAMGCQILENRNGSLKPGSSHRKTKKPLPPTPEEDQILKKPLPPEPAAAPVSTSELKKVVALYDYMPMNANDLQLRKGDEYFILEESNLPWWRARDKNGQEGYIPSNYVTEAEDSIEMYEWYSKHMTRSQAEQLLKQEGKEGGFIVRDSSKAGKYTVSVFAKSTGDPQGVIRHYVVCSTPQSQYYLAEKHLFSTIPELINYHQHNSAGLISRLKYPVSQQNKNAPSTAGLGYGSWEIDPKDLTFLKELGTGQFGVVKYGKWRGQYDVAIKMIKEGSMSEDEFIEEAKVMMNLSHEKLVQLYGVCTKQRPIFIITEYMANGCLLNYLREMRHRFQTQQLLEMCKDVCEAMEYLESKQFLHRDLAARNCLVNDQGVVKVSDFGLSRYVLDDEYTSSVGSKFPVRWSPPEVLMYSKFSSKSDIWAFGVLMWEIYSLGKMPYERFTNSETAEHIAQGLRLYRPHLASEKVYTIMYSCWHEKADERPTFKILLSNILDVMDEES
T1 sequence (P23458 875-1153 limits assumed): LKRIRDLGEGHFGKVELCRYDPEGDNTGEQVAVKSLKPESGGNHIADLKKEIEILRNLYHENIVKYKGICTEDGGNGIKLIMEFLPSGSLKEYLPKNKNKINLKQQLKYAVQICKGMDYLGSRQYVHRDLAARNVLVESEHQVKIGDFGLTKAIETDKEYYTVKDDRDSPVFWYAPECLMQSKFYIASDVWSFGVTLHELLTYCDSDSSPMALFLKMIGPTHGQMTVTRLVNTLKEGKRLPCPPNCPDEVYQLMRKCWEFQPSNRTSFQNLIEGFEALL
T4 sequence (P17948 27-1338): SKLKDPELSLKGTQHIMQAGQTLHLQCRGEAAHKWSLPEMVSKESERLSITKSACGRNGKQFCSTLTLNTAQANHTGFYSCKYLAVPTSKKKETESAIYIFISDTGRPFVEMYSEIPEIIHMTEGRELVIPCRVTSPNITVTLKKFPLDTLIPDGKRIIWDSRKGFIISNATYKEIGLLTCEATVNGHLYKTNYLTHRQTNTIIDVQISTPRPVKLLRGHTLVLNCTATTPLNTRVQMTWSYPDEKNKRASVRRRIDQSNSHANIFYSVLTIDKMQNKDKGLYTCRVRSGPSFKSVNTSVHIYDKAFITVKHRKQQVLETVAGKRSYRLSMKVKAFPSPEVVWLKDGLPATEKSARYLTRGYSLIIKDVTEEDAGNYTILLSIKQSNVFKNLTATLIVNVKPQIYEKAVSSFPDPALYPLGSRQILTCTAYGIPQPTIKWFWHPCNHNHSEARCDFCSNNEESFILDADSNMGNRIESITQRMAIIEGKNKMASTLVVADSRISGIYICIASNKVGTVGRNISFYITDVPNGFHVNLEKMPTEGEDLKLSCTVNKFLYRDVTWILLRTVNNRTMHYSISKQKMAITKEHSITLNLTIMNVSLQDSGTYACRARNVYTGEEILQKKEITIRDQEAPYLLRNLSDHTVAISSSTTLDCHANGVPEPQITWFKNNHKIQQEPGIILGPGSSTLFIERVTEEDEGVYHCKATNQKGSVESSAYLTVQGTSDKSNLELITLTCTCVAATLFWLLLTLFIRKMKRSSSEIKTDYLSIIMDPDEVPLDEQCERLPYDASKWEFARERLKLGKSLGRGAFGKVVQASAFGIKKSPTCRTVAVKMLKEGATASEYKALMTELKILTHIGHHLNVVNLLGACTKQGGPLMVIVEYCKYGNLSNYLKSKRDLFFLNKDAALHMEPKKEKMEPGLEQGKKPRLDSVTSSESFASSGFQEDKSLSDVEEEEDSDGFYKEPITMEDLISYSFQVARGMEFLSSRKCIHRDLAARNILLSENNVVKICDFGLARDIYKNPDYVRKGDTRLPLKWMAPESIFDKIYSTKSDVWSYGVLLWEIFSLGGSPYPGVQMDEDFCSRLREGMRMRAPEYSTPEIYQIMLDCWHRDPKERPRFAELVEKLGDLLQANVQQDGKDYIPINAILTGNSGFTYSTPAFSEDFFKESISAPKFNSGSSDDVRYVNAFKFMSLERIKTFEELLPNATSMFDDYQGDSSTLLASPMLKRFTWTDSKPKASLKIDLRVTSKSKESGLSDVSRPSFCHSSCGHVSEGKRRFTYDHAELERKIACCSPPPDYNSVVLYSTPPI
T5 sequence (P35916 25-1363): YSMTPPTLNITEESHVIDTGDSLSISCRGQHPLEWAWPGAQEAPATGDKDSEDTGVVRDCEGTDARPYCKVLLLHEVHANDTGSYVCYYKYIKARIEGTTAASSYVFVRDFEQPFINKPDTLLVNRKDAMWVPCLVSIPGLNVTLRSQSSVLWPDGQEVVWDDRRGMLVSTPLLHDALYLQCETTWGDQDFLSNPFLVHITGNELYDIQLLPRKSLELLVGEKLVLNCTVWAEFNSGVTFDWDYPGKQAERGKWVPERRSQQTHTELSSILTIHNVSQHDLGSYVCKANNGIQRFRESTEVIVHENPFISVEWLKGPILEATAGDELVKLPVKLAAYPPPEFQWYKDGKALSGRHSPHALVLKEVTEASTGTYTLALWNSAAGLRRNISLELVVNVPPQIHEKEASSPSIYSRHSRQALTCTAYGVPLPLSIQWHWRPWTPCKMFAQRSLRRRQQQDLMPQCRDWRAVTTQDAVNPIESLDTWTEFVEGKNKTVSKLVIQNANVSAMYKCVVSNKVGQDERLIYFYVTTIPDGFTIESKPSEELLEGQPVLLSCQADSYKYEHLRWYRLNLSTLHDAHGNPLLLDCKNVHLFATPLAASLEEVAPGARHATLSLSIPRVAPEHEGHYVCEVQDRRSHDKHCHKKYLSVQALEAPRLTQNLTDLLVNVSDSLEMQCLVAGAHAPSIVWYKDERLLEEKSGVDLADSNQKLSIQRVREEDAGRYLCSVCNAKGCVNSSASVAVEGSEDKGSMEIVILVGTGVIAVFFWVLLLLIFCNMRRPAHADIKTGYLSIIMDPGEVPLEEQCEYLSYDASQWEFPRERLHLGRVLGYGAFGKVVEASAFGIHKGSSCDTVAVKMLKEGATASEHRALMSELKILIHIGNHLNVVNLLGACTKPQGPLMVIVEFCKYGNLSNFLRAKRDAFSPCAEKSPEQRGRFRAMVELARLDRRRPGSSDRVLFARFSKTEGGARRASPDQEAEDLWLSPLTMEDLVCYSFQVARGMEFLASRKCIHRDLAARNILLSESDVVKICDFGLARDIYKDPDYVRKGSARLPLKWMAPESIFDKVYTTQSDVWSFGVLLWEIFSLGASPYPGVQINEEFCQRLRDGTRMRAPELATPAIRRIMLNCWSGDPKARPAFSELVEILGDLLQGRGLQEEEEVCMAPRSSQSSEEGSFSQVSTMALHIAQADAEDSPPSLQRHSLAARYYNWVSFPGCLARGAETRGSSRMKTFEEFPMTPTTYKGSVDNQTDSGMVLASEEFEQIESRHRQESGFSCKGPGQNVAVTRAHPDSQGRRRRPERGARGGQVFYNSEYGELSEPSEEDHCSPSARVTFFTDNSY

As for `N#Cc1nnnn1Cc1ccc(Sc2ccnc(Nc3ccc(N4CCOCC4)cc3)n2)cc1` [Compound 155, 1-(4-(2-(4-morpholinophenylao)pyrimidin-4-ylthio)benzyl)-1H-tetrazole-5-carbonitrile], the IC50 at human JAK1 was above 1 µM; at human JAK3, below 0.1 µM; in the experiment on BaF3 wild-type cells, below 20 µM; in the experiment on CTLL2, below 5 µM. Moreover, the inhibition (in general, the share of the control response that was lost under treatment) at 0.5 µM was determined as 81% on BTK(h), 74% at Flt 1(h), 99% at Flt 4(h) and 98% at KDR(h).
As for `N#Cc1nnn(Cc2ccc(Sc3ccnc(Nc4ccc(N5CCOCC5)cc4)n3)cc2)n1` [Compound 156, 2-(4-(2-(4-morpholinophenylao)pyrimidin-4-ylthio)benzyl)-2H-tetrazole-5-carbonitrile], the IC50 on human JAK1 was above 1 µM; on human JAK3, below 0.1 µM; in the experiment with BaF3 wild-type cells, below 5 µM; with CTLL2, below 5 µM. The inhibition at 0.5 µM at BTK(h) stood at 81%; at Flt 1(h), 80%; on Flt 4(h), 94%; at KDR(h), 97%.
For `C=CC(=O)N(C)c1ccc(Sc2nc(Nc3ccc(N4CCOCC4)cc3)ncc2C)cc1` [Compound 173, N-methyl-N-(4-(5-methyl-2-(4-morpholinophenylao)pyrimidin-4-ylthio)phenyl)acrylamide], the IC50 at human JAK1 is below 0.5 µM; on human JAK3, below 0.1 µM; in the experiment with BaF3 wild-type cells, below 20 µM; in the experiment on CTLL2, below 1 µM. The inhibition at 0.5 µM on BTK(h) was 93%; at Flt 1(h), 95%; at Flt 4(h) it was 98%; at KDR(h), 96%.
With `Cc1cnc(Nc2ccc(N3CCOCC3)cc2)nc1Sc1ccc(N2C(=O)CSCC2=O)cc1` [Compound 231, 4-(4-(5-methyl-2-(4-morpholinophenylao)pyrimidin-4-ylthio)phenyl)thiomorpholine-3,5-dione], the IC50 at human JAK1 is above 1 µM; on human JAK3 it was below 0.1 µM; in the experiment with BaF3 wild-type cells it was above 20 µM; with CTLL2 it was below 20 µM. Moreover, the inhibition at 0.5 µM is 91% on BTK(h), 95% on Flt 1(h), 100% at Flt 4(h) and 99% at KDR(h).
With `C=CC(=O)Nc1ccc(Sc2nc(Nc3ccc(N4CCN(C)CC4)cc3)ncc2C)cc1` [Compound 239, N-(4-(5-methyl-2-(4-(4-methylpiperazin-1-yl)phenylao)pyrimidin-4-ylthio)phenyl)acrylamide], the IC50 on human JAK1 is below 0.5 µM; at human JAK3, below 0.1 µM; with BaF3 wild-type cells it was below 5 µM; in the experiment with CTLL2, below 1 µM. Further, the inhibition at 0.5 µM at BTK(h) worked out at 97%; on Flt 1(h), 100%; on Flt 4(h), 100%; on KDR(h), 96%.
For the molecule `C=CC(=O)Nc1ccc(Sc2nc(Nc3ccc(OC)c(OC)c3)ncc2C)cc1` [Compound 241, N-(4-(2-(3,4-dimethoxyphenylao)-5-methylpyrimidin-4-ylthio)phenyl)acrylamide], the IC50 on human JAK1 is above 1 µM; on human JAK3 it was below 0.1 µM; in the experiment with BaF3 wild-type cells, below 20 µM; in the experiment with CTLL2 it was below 1 µM. In addition, the inhibition at 0.5 µM on BTK(h) is 88%; at Flt 1(h), 100%; on Flt 4(h), 100%; on KDR(h), 97%.
Take `C=CC(=O)Nc1ccc(Sc2nc(Nc3cccc(N4CCN(C)CC4)c3)ncc2C)cc1` [Compound 243, N-(4-(5-methyl-2-(3-(4-methylpiperazin-1-yl)phenylao)pyrimidin-4-ylthio)phenyl)acrylamide]: the IC50 was above 1 µM at human JAK1, below 0.1 µM on human JAK3, below 5 µM in the experiment with BaF3 wild-type cells and below 1 µM in the experiment on CTLL2. The inhibition at 0.5 µM on BTK(h) amounted to 97%; at Flt 1(h), 100%; on Flt 4(h), 100%; at KDR(h) it was 97%.
Consider `C=CC(=O)Nc1ccc(Sc2nc(Nc3ccc(C4CCN(C)CC4)cc3)ncc2C)cc1` [Compound 246, N-(4-(5-methyl-2-(4-(1-methylpiperidin-4-yl)phenylao)pyrimidin-4-ylthio)phenyl)acrylamide], for which the values for the IC50 at human JAK1 and at human JAK3 were above 1 µM and below 0.1 µM, respectively. Besides, the inhibition at 0.5 µM is 97% at BTK(h), 100% on Flt 1(h), 100% on Flt 4(h) and 93% at KDR(h).
In the case of `C=CC(=O)Nc1ccc(Sc2nc(Nc3ccc(N4CCOCC4)c(OC)c3)ncc2C)cc1` [Compound 248, N-(4-(2-(3-methoxy-4-morpholinophenylao)-5-methylpyrimidin-4-ylthio)phenyl)acrylamide], the IC50 was above 1 µM on human JAK1, below 0.1 µM at human JAK3, below 5 µM in the experiment on BaF3 wild-type cells and below 1 µM in the experiment with CTLL2. Moreover, the inhibition at 0.5 µM on BTK(h) was determined as 80%; at Flt 1(h), 95%; on Flt 4(h), 100%; at KDR(h), 95%.
As to `C=CC(=O)Nc1ccc(Sc2nc(Nc3cccc(N4CCOCC4)c3)ncc2F)cc1` [Compound 267, N-(4-(5-fluoro-2-(3-morpholinophenylao)pyrimidin-4-ylthio)phenyl)acrylamide], the IC50 at human JAK1 is above 1 µM; on human JAK3 it was below 0.1 µM; in the experiment with BaF3 wild-type cells it was below 5 µM; with CTLL2 it was below 1 µM. Besides, the inhibition at 0.5 µM worked out at 94% on BTK(h), 100% at Flt 1(h), 100% on Flt 4(h) and 94% on KDR(h).
Take `C=CC(=O)Nc1ccc(Sc2nc(Nc3cccc(CO)c3)ncc2C)cc1` [Compound 280, N-(4-(2-(3-(hydroxymethyl)phenylao)-5-methylpyrimidin-4-ylthio)phenyl)acrylamide]: the IC50 at human JAK1 was above 1 µM; on human JAK3, below 0.1 µM; with BaF3 wild-type cells, below 20 µM; with CTLL2, below 1 µM. The inhibition at 0.5 µM was found to be 97% on BTK(h), 100% at Flt 1(h), 100% on Flt 4(h) and 97% on KDR(h).
For the molecule `C=CC(=O)Nc1ccc(Sc2nc(Nc3ccc(NS(C)(=O)=O)cc3)ncc2C)cc1` [Compound 285, N-(4-(5-methyl-2-(4-(methylsulfonamido)phenylao)pyrimidin-4-ylthio)phenyl)acrylamide], the IC50 at human JAK1 is above 1 µM; at human JAK3, below 0.1 µM; with BaF3 wild-type cells, below 5 µM; with CTLL2, below 1 µM. For the same molecule, the inhibition at 0.5 µM was 91% at BTK(h), 95% at Flt 1(h), 98% on Flt 4(h) and 94% on KDR(h).
Turning to `C=CC(=O)Nc1ccc(Sc2nc(Nc3ccc(N4CCC(CO)CC4)cc3)ncc2C)cc1` [Compound 286, N-(4-(2-(4-(4-(hydroxymethyl)piperidin-1-yl)phenylao)-5-methylpyrimidin-4-ylthio)phenyl)acrylamide], the IC50 at human JAK1 is above 1 µM; at human JAK3 it was below 0.1 µM; in the experiment with BaF3 wild-type cells it was above 20 µM; in the experiment with CTLL2, below 1 µM. Besides, the inhibition at 0.5 µM on BTK(h) amounted to 74%; on Flt 1(h) it was 98%; on Flt 4(h) it was 100%; on KDR(h), 94%.
In the case of `C=CC(=O)Nc1ccc(Sc2nc(Nc3cccc(NS(C)(=O)=O)c3)ncc2C)cc1` [Compound 288, N-(4-(5-methyl-2-(3-(methylsulfonamido)phenylao)pyrimidin-4-ylthio)phenyl)acrylamide], the IC50 on human JAK1 is above 1 µM; at human JAK3, below 0.1 µM; with BaF3 wild-type cells, below 20 µM; in the experiment with CTLL2 it was below 1 µM. In addition, the inhibition at 0.5 µM at BTK(h) worked out at 98%; at Flt 1(h) it was 100%; on Flt 4(h), 100%; at KDR(h), 94%.
